Here are results for four molecules from ChEMBL document CHEMBL1773013, “Malyngamide 3 and cocosamides A and B from the marine cyanobacterium Lyngbya majuscula from Cocos Lagoon, Guam” (J Nat Prod, 2011).

Assay [1] has as its system MCF7. The assay is described as follows: Cytotoxicity against human MCF7 cells assessed as cell viability after 48 hrs by MTT assay. Particulars: MCF7, 48 h. The format is functional, cell-based. (Tetrazolium dyes change colour on reduction, which living cells bring about.)
Assay [2] deals with HT-29. The assay is described as follows: Cytotoxicity against human HT-29 cells assessed as cell viability after 48 hrs by MTT assay. Type of assay: functional, cell-based. The note with it: HT-29, 48 h.

As usually defined, the IC50 is the point on the concentration scale where inhibition reaches its midpoint. With `C=CCCC[C@@H]1OC(=O)CNC(=O)[C@H](Cc2ccccc2)N(C)C(=O)[C@@H]2CCCN2C(=O)[C@H](Cc2ccccc2)N(C)C(=O)[C@H](C(C)C)NC(=O)C1(C)C` [COCOSAMIDE A], the IC50 is 30 µM in assay [1] and 24 µM in assay [2].
With `C#CCCC[C@@H]1OC(=O)CNC(=O)[C@H](Cc2ccccc2)N(C)C(=O)[C@@H]2CCCN2C(=O)[C@H](Cc2ccccc2)N(C)C(=O)[C@H](C(C)C)NC(=O)C1(C)C` [COCOSAMIDE B], the results for the IC50 in assay [1] and in assay [2] were 39 µM and 11 µM, respectively.
For `CCCCCCC[C@@H](C/C=C/CCC(=O)N(C)C/C(=C\Cl)CC(=O)CC(=O)NC[C@H](O)CC(=O)OC)OC` [MALYNGAMIDE 3], in that order: 29 µM and 48 µM.
For `CC(=O)O[C@H]1C(=O)[C@@]2(C)[C@H]([C@H](OC(=O)c3ccccc3)[C@]3(O)C[C@H](OC(=O)[C@H](O)[C@@H](NC(=O)c4ccccc4)c4ccccc4)C(C)=C1C3(C)C)[C@]1(OC(C)=O)CO[C@@H]1C[C@@H]2O` [PACLITAXEL], in that order: 0.006 µM and 0.007 µM.
